Biological target: T1, CCR2 receptor (Homo sapiens, UniProt P41597)
T1 construct: expressed in transfected cells
Test: compound-induced calcium activity on FLIPR Tetra in HEK-Gqi5 cells stably expressing CCR2
Format: cell-based
Details: CCR2 receptor, HEK-Gqi5 cells stably expressing CCR2, calcium FLIPR Tetra; for IC50: read-out: IC50
Experimental: HEK-Gqi5 cells stably expressing CCR2 were cultured in (DMEM high glucose, 10% FBS, 1% PSA, 400 μg/ml geneticin and 50 μg/ml hygromycin. Appropriate positive control chemokines (MCP-1, MIP1A or RANTES) was used as the positive control agonist for screening compound-induced calcium activity assayed on the FLIPR^Tetra. The drug plates were prepared in 384-well microplates using the EP3 and the MultiPROBE robotic liquid handling systems. Compounds were synthesized and tested for CCR2 activity.

T1 sequence (P41597 whole entry): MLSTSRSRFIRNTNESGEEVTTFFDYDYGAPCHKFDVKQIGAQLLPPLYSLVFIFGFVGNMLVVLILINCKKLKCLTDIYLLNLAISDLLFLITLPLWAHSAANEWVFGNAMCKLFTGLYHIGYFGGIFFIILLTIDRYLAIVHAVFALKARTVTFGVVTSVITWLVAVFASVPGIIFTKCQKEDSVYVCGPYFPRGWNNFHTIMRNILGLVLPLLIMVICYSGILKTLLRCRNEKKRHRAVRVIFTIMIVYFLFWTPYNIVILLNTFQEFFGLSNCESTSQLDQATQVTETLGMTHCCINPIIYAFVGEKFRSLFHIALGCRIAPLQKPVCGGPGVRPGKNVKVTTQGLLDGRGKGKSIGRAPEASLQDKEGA

Row | SMILES | % ANTAGONISM [%] | IC50 [nM]
1 | O=C(O)c1ccccc1C[S+]([O-])c1ncccc1NS(=O)(=O)c1cc2ccccc2o1 (stereo not shown) [Compound 59, 2-[({3-[(1-benzofuran-2-ylsulfonyl)amino]pyridin-2-yl}sulfinyl)methyl]benzoic acid] | 58 | –
2 | O=C(O)c1ccccc1CSc1ncc(Cl)cc1NS(=O)(=O)c1cc2ccccc2o1 [Compound 36, 2-[({3-[(1-benzofuran-2-ylsulfonyl)amino]-5-chloropyridin-2-yl}sulfanyl)methyl]benzoic acid] | 97 | 340
3 | O=C(O)c1cccc(Sc2ncc(Cl)cc2NS(=O)(=O)c2cc3ccccc3o2)c1 [Compound 48, 3-({3-[(1-benzofuran-2-ylsulfonyl)amino]-5-chloropyridin-2-yl}sulfanyl)benzoic acid] | 96 | 786
4 | COC(=O)c1ccccc1CSc1ncc(Cl)cc1NS(=O)(=O)c1cc2ccccc2o1 [Compound 35, methyl 2-[({3-[(1-benzofuran-2-ylsulfonyl)amino]-5-chloropyridin-2-yl}sulfanyl)methyl]benzoate] | 91 | 4250
5 | O=C(O)c1ccccc1Sc1ncc(Cl)cc1NS(=O)(=O)c1cc2ccccc2o1 [Compound 47, 2-({3-[(1-benzofuran-2-ylsulfonyl)amino]-5-chloropyridin-2-yl}sulfanyl)benzoic acid] | 102 | 1230
6 | Cc1cnc([S+]([O-])c2ccccc2)c(NS(=O)(=O)c2cc3ccccc3o2)c1 (stereo not shown) [Compound 45, N-[5-methyl-2-(phenylsulfinyl)pyridin-3-yl]-1-benzofuran-2-sulfonamide] | 105 | 455
7 | COC(=O)c1ccccc1CSc1ncccc1NS(=O)(=O)c1cc2ccccc2o1 [Compound 56, methyl 2-[({3-[(1-benzofuran-2-ylsulfonyl)amino]pyridin-2-yl}sulfanyl)methyl]benzoate] | 92 | 1750
8 | O=S(=O)(Nc1cccnc1SCc1ccccc1)c1cc2ccccc2o1 [Compound 8, N-[2-(benzylthio)pyridin-3-yl]-1-benzofuran-2-sulfonamide] | 80 | 3010
9 | O=C(O)c1ccccc1C[S+]([O-])c1ncc(Cl)cc1NS(=O)(=O)c1cc2ccccc2o1 (stereo not shown) [Compound 43, 2-[({3-[(1-benzofuran-2-ylsulfonyl)amino]-5-chloropyridin-2-yl}sulfinyl)methyl]benzoic acid] | 90 | –
10 | Cc1cnc(S(=O)(=O)c2ccccc2)c(NS(=O)(=O)c2cc3ccccc3o2)c1 [Compound 46, N-[5-methyl-2-(phenylsulfonyl)pyridin-3-yl]-1-benzofuran-2-sulfonamide] | 57 | 1440
11 | O=S(=O)(Cc1cccnc1)c1ncc(Cl)cc1NS(=O)(=O)c1cc2ccccc2o1 [Compound 6, N-{5-chloro-2-[(pyridin-3-ylmethyl)sulfonyl]pyridin-3-yl}-1-benzofuran-2-sulfonamide] | 84 | 2140
12 | O=C(O)c1ccccc1CS(=O)(=O)c1ncccc1NS(=O)(=O)c1cc2ccccc2o1 [Compound 61, 2-[({3-[(1-benzofuran-2-ylsulfonyl)amino]pyridin-2-yl}sulfonyl)methyl]benzoic acid] | 57 | –

The remaining molecules from weak to strong by IC50, led by results:

Row | % ANTAGONISM [%] | IC50 [nM] | SMILES
13 | 100 | 255 | Nc1cccc(C[S+]([O-])c2ncccc2NS(=O)(=O)c2cc3ccccc3o2)c1 (stereo not shown) [Compound 12, N-{2-[(3-aminobenzyl)sulfinyl]pyridin-3-yl}-1-benzofuran-2-sulfonamide]
14 | 83 | 252 | O=S(=O)(Nc1cc(Cl)cnc1SCc1ccccc1)c1cc2ccccc2o1 [Compound 1, N-[2-(benzylthio)-5-chloropyridin-3-yl]-1-benzofuran-2-sulfonamide]
15 | 93 | 215 | COC(=O)c1ccccc1Oc1ncc(Cl)cc1NS(=O)(=O)c1cc2ccccc2o1 [Compound 25, methyl 2-({3-[(1-benzofuran-2-ylsulfonyl)amino]-5-chloropyridin-2-yl}oxy)benzoate]
16 | 99 | 201 | O=S(=O)(Nc1cc(Cl)cnc1[S+]([O-])Cc1cccnc1)c1cc2ccccc2o1 (stereo not shown) [Compound 5, N-{5-chloro-2-[(pyridin-3-ylmethyl)sulfinyl]pyridin-3-yl}-1-benzofuran-2-sulfonamide]
17 | 100 | 142 | Nc1cccc(CS(=O)(=O)c2ncc(Cl)cc2NS(=O)(=O)c2cc3ccccc3o2)c1 [Compound 20, N-(2-((3-aminobenzyl)sulfonyl)-5-chloropyridin-3-yl)benzofuran-2-sulfonamide]
18 | 100 | 130 | O=S(=O)(Cc1ccc[n+]([O-])c1)c1ncc(Cl)cc1NS(=O)(=O)c1cc2ccccc2o1 [Compound 7, N-(5-chloro-2-{[(1-oxidopyridin-3-yl)methyl]sulfonyl}pyridin-3-yl)-1-benzofuran-2-sulfonamide]
19 | 99 | 102 | Nc1cccc(CSc2ncccc2NS(=O)(=O)c2cc3ccccc3o2)c1 [Compound 11, N-{2-[(3-aminobenzyl)sulfanyl]pyridin-3-yl}-1-benzofuran-2-sulfonamide]
20 | 98 | 95 | Nc1cccc(CSc2ncc(Cl)cc2NS(=O)(=O)c2cc3ccccc3o2)c1 [Compound 18, Benzofuran-2-sulfonic acid [2-(3-amino-benzylsulfanyl)-5-chloro-pyridin-3-yl]-amide]
21 | 101 | 86 | COC(=O)c1ccccc1CS(=O)(=O)c1ncccc1NS(=O)(=O)c1cc2ccccc2o1 [Compound 60, methyl 2-[({3-[(1-benzofuran-2-ylsulfonyl)amino]pyridin-2-yl}sulfonyl)methyl]benzoate]
22 | 97 | 68 | O=S(=O)(Nc1cc(F)cnc1[S+]([O-])c1ccccc1)c1cc2ccccc2o1 (stereo not shown) [Compound 41, N-[5-fluoro-2-(phenylsulfinyl)pyridin-3-yl]-1-benzofuran-2-sulfonamide]
23 | 95 | 32 | O=S(=O)(Nc1cc(Cl)cnc1SCc1cccnc1)c1cc2ccccc2o1 [Compound 4, N-{5-chloro-2-[(pyridin-3-ylmethyl)thio]pyridin-3-yl}-1-benzofuran-2-sulfonamide]
24 | 94 | 31 | O=S(=O)(Nc1cc(Cl)cnc1[S+]([O-])Cc1ccccc1)c1cc2ccccc2o1 (stereo not shown) [Compound 2, N-[2-(benzylsulfinyl)-5-chloropyridin-3-yl]-1-benzofuran-2-sulfonamide]
25 | 95 | 16 | O=S(=O)(Cc1ccccc1)c1ncccc1NS(=O)(=O)c1cc2ccccc2o1 [Compound 10, N-[2-(benzylsulfonyl)pyridin-3-yl]-1-benzofuran-2-sulfonamide]
26 | 96 | 12 | Cc1cnc(S(=O)(=O)Cc2ccccc2)c(NS(=O)(=O)c2cc3ccccc3o2)c1 [Compound 23, N-[2-(benzylsulfonyl)-5-methylpyridin-3-yl]-1-benzofuran-2-sulfonamide]

From patent US8815915B2, “Benzofuran-2-sulfonamides pyridine derivatives as chemokine receptor modulators” (Allergan, Inc., priority 2012, dated 2014)
